Assay results taken from ChEMBL document CHEMBL5723583, “Data for DCP probe BAY-9835” (2024).

How the values were obtained:
[1] = molecular target: Disintegrin and metalloproteinase domain-containing protein 17 (Homo sapiens, UniProt P78536); assay: IC50 of hADAM17 at 1.0 µM in the Bayer in-house protease panel
[2] = molecular target: Mu-type opioid receptor (Homo sapiens) (UniProt P35372); assay: Inhibition of Opiate mu (OP3, MOP) at 10.0 µM in the Eurofins-Panlabs selectivity screen; conditions: Compound concentration 10.0 uM
[3] = molecular target: Insulin receptor (Homo sapiens) (UniProt P06213); assay: Inhibition of Insulin at 10.0 µM in the Eurofins-Panlabs selectivity screen; conditions: Rattus norvegicus; Compound concentration 10.0 uM
[4] = molecular target: Motilin receptor (Homo sapiens) (UniProt O43193); assay: Inhibition of Motilin at 10.0 µM in the Eurofins-Panlabs selectivity screen; conditions: Compound concentration 10.0 uM
[5] = molecular target: D(2) dopamine receptor (Homo sapiens) (UniProt P14416); assay: Inhibition of Dopamine D2S at 10.0 µM in the Eurofins-Panlabs selectivity screen; conditions: Compound concentration 10.0 uM
D(2) dopamine receptor (Homo sapiens), sequence (P14416 whole entry): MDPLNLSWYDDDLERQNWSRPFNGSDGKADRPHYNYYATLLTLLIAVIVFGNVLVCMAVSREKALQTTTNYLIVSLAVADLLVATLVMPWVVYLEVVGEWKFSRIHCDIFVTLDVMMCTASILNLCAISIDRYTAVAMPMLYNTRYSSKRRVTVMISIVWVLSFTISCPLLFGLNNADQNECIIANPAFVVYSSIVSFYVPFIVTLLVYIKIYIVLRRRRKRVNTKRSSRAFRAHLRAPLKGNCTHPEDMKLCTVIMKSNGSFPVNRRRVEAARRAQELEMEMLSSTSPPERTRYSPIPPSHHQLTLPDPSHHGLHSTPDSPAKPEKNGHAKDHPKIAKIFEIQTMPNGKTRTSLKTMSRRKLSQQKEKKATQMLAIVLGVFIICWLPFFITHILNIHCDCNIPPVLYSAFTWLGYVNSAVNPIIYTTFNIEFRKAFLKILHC

[6] = molecular target: Thromboxane-A synthase (Homo sapiens) (UniProt P24557); assay: Inhibition of Thromboxane Synthase at 10.0 µM in the Eurofins-Panlabs selectivity screen; conditions: Compound concentration 10.0 uM
[7] = molecular target: Type-1 angiotensin II receptor (Homo sapiens) (UniProt P30556); assay: Inhibition of Angiotensin AT1 at 10.0 µM in the Eurofins-Panlabs selectivity screen; conditions: Compound concentration 10.0 uM
Type-1 angiotensin II receptor (Homo sapiens), sequence (P30556 whole entry): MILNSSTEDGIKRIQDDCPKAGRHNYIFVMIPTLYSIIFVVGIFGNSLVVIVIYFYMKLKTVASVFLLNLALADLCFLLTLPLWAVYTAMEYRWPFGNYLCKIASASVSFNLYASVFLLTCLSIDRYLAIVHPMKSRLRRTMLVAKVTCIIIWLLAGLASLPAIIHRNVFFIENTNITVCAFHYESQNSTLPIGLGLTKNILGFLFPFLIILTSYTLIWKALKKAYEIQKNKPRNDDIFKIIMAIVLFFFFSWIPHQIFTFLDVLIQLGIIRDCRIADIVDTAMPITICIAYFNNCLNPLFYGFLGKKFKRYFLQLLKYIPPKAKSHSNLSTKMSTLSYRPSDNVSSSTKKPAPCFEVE

[8] = molecular target: Adenosine receptor A1 (Homo sapiens) (UniProt P30542); assay: Inhibition of Adenosine A1 at 10.0 µM in the Eurofins-Panlabs selectivity screen; conditions: Compound concentration 10.0 uM
Adenosine receptor A1 (Homo sapiens), sequence (P30542 whole entry): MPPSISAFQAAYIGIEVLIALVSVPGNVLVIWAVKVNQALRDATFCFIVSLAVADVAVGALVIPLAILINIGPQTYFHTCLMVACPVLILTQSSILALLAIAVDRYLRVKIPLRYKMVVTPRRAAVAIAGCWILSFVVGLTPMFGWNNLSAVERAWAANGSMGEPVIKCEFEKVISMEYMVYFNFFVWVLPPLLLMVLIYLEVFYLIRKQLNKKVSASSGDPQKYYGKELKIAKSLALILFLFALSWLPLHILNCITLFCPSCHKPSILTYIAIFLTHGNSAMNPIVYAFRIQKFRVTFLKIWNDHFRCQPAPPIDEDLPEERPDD

[9] = molecular target: Histamine H3 receptor (Homo sapiens) (UniProt Q9Y5N1); assay: Inhibition of Histamine H3 at 10.0 µM in the Eurofins-Panlabs selectivity screen; conditions: Compound concentration 10.0 uM
[10] = molecular target: Macrophage metalloelastase (Homo sapiens, UniProt P39900); assay: IC50 of hMMP12 at 1.0 µM in the Bayer in-house protease panel
[11] = molecular target: Equilibrative nucleoside transporter 1/2/3/4 (Homo sapiens) (UniProt Q99808+Q7RTT9+Q14542+Q9BZD2); assay: Inhibition of Transporter, Adenosine at 10.0 µM in the Eurofins-Panlabs selectivity screen; assay type: protein assay; conditions: Compound concentration 10.0 uM
Equilibrative nucleoside transporter 1/2/3/4 (Homo sapiens), sequence (Q14542 whole entry, looked up): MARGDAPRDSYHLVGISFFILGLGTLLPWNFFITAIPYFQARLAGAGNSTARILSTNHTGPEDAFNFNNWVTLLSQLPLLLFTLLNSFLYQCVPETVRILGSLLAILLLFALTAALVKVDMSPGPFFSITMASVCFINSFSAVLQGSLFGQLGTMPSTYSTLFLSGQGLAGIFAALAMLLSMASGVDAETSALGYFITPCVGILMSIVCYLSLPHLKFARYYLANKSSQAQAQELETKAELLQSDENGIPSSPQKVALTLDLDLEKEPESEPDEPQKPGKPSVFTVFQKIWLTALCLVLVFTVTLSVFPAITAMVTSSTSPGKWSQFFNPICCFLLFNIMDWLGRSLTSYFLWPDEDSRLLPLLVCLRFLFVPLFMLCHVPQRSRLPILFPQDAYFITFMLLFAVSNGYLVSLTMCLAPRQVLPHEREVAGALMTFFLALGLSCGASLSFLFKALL
Equilibrative nucleoside transporter 1/2/3/4 (Homo sapiens), sequence (Q7RTT9 whole entry, looked up): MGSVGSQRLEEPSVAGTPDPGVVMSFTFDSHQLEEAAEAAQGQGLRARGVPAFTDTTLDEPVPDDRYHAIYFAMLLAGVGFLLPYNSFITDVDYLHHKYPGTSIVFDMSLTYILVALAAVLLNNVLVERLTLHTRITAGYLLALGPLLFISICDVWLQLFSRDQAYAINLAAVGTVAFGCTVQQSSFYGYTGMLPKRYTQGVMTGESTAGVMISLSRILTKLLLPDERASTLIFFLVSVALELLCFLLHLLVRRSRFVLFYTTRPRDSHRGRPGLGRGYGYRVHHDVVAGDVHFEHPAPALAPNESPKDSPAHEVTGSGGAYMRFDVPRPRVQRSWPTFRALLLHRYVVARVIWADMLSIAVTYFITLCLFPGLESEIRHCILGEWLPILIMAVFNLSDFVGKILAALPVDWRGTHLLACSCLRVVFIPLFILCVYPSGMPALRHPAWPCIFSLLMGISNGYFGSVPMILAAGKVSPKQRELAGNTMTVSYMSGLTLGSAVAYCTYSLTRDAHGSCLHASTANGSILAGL
Equilibrative nucleoside transporter 1/2/3/4 (Homo sapiens), sequence (Q99808 whole entry, looked up): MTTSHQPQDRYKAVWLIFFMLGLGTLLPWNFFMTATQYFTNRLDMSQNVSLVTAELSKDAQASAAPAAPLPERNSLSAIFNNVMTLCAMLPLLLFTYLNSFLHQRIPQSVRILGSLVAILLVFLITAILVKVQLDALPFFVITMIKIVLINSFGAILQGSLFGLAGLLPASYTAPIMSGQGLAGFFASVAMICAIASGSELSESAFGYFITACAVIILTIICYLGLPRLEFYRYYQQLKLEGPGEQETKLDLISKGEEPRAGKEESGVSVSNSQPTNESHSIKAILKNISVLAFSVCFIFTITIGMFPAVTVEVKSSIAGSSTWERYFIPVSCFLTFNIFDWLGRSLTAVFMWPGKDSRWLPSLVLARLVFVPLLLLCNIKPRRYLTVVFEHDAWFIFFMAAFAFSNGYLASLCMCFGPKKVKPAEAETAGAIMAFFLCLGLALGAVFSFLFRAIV
Equilibrative nucleoside transporter 1/2/3/4 (Homo sapiens), sequence (Q9BZD2 whole entry, looked up): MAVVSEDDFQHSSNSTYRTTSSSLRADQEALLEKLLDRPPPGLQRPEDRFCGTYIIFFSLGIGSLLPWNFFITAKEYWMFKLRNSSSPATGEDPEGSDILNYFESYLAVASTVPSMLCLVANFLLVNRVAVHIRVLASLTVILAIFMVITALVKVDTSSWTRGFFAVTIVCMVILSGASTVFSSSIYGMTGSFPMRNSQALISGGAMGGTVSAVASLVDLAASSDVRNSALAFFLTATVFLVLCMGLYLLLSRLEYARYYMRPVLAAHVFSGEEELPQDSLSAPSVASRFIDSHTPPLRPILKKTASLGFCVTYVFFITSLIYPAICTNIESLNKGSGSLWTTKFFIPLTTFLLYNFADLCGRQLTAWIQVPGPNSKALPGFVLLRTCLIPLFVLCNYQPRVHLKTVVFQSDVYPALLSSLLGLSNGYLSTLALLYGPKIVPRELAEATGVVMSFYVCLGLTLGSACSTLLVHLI

[12] = molecular target: Muscarinic acetylcholine receptor M2 (Homo sapiens) (UniProt P08172); assay: Inhibition of Muscarinic M2 at 10.0 µM in the Eurofins-Panlabs selectivity screen; conditions: Compound concentration 10.0 uM
[13] = molecular target: Kappa-type opioid receptor (Homo sapiens) (UniProt P41145); assay: Inhibition of Opiate kappa (OP2, KOP) at 10.0 µM in the Eurofins-Panlabs selectivity screen; conditions: Compound concentration 10.0 uM
Kappa-type opioid receptor (Homo sapiens), sequence (P41145 whole entry): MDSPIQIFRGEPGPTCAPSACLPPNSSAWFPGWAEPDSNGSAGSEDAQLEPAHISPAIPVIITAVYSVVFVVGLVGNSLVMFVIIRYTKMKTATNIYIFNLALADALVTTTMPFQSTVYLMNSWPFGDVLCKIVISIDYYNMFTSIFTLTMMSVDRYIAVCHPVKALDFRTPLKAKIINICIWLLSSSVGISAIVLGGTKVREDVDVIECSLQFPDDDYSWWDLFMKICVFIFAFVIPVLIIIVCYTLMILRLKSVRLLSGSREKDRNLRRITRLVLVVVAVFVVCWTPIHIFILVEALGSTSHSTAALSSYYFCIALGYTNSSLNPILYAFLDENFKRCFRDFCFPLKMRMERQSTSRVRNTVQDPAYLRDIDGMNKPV

[14] = molecular target: Calpain-1 catalytic subunit (Homo sapiens, UniProt P07384); assay: IC50 of Calpain 1 at 1.0 µM in the Bayer in-house protease panel
[15] = molecular target: GABA-A receptor; anion channel (Rattus norvegicus) (UniProt O09028+P15431+P18506+P18508+P19969+P20236+P23574+P23576+P28471+P28473+P30191+P62813+P63079+P63138+Q91ZM7+Q9ES14); assay: Inhibition of GABAA, Flunitrazepam, Central at 10.0 µM in the Eurofins-Panlabs selectivity screen; assay type: protein-complex assay; conditions: Compound concentration 10.0 uM
[16] = molecular target: P2X receptor (Rattus norvegicus) (UniProt P51579+P49653+P51578+Q64663+P47824+P51577+P49654); assay: Inhibition of Purinergic P2X at 10.0 µM in the Eurofins-Panlabs selectivity screen; assay type: protein assay; conditions: Compound concentration 10.0 uM
[17] = molecular target: Androgen receptor (Homo sapiens) (UniProt P10275); assay: Inhibition of Androgen (Testosterone) at 10.0 µM in the Eurofins-Panlabs selectivity screen; conditions: Compound concentration 10.0 uM
[18] = molecular target: Histamine H2 receptor (Homo sapiens) (UniProt P25021); assay: Inhibition of Histamine H2 at 10.0 µM in the Eurofins-Panlabs selectivity screen; conditions: Compound concentration 10.0 uM
[19] = molecular target: D(3) dopamine receptor (Homo sapiens) (UniProt P35462); assay: Inhibition of Dopamine D3 at 10.0 µM in the Eurofins-Panlabs selectivity screen; conditions: Compound concentration 10.0 uM
[20] = molecular target: Matrix metalloproteinase-15 (Homo sapiens, UniProt P51511); assay: IC50 of hMMP15 at 1.0 µM in the Bayer in-house protease panel
[21] = molecular target: Adenosine receptor A3 (Homo sapiens) (UniProt P0DMS8); assay: Inhibition of Adenosine A3 at 10.0 µM in the Eurofins-Panlabs selectivity screen; conditions: Compound concentration 10.0 uM
[22] = molecular target: Adenosine receptor A2a (Homo sapiens) (UniProt P29274); assay: Inhibition of Adenosine A2A at 10.0 µM in the Eurofins-Panlabs selectivity screen; conditions: Compound concentration 10.0 uM
[23] = molecular target: A disintegrin and metalloproteinase with thrombospondin motifs 5 (Homo sapiens, UniProt Q9UNA0); assay: IC50 of hADAMTS5 at 1.0 µM in the Bayer in-house protease panel
[24] = molecular target: 5-hydroxytryptamine receptor 1A (Homo sapiens) (UniProt P08908); assay: Inhibition of Serotonin (5-Hydroxytryptamine) 5-HT1A at 10.0 µM in the Eurofins-Panlabs selectivity screen; conditions: Compound concentration 10.0 uM
[25] = molecular target: A disintegrin and metalloproteinase with thrombospondin motifs 4 (Homo sapiens, UniProt O75173); assay: IC50 of hADAMTS4 at 1.0 µM in the Bayer in-house protease panel
[26] = molecular target: B2 bradykinin receptor (Homo sapiens) (UniProt P30411); assay: Inhibition of Bradykinin B2 at 10.0 µM in the Eurofins-Panlabs selectivity screen; conditions: Compound concentration 10.0 uM
[27] = molecular target: Carbonic anhydrase 2 (Homo sapiens) (UniProt P00918); assay: Inhibition of Carbonic Anhydrase II at 10.0 µM in the Eurofins-Panlabs selectivity screen; conditions: Compound concentration 10.0 uM
[28] = molecular target: 5-hydroxytryptamine receptor 2A (Homo sapiens) (UniProt P28223); assay: Inhibition of Serotonin (5-Hydroxytryptamine) 5-HT2A at 10.0 µM in the Eurofins-Panlabs selectivity screen; conditions: Compound concentration 10.0 uM
[29] = molecular target: Histamine H1 receptor (Homo sapiens) (UniProt P35367); assay: Inhibition of Histamine H1 at 10.0 µM in the Eurofins-Panlabs selectivity screen; conditions: Compound concentration 10.0 uM
[30] = molecular target: Cannabinoid receptor 2 (Homo sapiens) (UniProt P34972); assay: Inhibition of Cannabinoid CB2 at 10.0 µM in the Eurofins-Panlabs selectivity screen; conditions: Compound concentration 10.0 uM
[31] = molecular target: Angiotensin-converting enzyme (Homo sapiens) (UniProt P12821); assay: Inhibition of Peptidase, Angiotensin Converting Enzyme at 10.0 µM in the Eurofins-Panlabs selectivity screen; conditions: Oryctolagus cuniculus; Compound concentration 10.0 uM
[32] = molecular target: Gamma-aminobutyric acid type B receptor subunit 1 (Homo sapiens) (UniProt Q9UBS5); assay: Inhibition of GABAB, Non-Selective at 10.0 µM in the Eurofins-Panlabs selectivity screen; conditions: Rattus norvegicus; Compound concentration 10.0 uM
Gamma-aminobutyric acid type B receptor subunit 1 (Homo sapiens), sequence (Q9UBS5 whole entry): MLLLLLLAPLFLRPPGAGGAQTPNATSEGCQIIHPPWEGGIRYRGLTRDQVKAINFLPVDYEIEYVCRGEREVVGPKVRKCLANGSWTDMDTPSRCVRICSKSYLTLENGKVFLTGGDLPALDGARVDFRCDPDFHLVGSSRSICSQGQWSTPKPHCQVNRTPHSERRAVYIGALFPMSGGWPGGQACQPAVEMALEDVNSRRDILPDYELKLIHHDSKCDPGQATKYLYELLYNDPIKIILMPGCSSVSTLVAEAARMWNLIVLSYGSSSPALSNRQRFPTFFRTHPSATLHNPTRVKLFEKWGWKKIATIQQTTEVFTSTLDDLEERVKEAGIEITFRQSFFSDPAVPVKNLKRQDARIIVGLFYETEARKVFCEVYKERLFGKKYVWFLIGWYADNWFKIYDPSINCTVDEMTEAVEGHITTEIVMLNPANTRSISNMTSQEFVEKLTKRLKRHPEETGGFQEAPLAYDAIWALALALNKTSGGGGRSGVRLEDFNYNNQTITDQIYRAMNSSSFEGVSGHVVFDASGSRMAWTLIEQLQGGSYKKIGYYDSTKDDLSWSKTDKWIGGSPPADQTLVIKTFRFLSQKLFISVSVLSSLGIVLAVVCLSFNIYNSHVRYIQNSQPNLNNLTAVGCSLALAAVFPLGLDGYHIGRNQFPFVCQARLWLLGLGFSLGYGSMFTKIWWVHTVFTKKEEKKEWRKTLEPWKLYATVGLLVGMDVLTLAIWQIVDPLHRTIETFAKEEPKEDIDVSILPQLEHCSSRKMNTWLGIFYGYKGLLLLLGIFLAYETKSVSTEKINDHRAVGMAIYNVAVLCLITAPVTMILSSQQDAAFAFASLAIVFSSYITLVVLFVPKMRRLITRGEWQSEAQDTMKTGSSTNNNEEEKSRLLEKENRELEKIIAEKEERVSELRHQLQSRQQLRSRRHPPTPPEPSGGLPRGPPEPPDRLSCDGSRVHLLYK

[33] = molecular target: Prostaglandin G/H synthase 2 (Homo sapiens) (UniProt P35354); assay: Inhibition of Cyclooxygenase COX-2 at 10.0 µM in the Eurofins-Panlabs selectivity screen; conditions: Compound concentration 10.0 uM
Prostaglandin G/H synthase 2 (Homo sapiens), sequence (P35354 whole entry): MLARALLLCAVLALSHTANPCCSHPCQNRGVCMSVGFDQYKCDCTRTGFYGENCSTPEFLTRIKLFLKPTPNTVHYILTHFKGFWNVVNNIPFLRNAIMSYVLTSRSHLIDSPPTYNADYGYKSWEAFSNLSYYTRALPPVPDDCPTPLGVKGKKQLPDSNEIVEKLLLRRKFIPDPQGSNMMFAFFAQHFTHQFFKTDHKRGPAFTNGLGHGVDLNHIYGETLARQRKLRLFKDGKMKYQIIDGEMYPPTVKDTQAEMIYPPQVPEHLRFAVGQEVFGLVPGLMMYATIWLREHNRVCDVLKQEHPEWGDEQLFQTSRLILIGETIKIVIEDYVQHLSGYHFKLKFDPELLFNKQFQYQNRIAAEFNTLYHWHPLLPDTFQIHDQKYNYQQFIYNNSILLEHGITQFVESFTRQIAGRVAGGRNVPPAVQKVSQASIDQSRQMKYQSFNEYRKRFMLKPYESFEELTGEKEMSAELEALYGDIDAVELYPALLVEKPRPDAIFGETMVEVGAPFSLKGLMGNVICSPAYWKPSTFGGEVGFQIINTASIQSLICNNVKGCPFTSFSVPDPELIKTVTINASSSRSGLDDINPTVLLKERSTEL

[34] = molecular target: D(1A) dopamine receptor (Homo sapiens) (UniProt P21728); assay: Inhibition of Dopamine D1 at 10.0 µM in the Eurofins-Panlabs selectivity screen; conditions: Compound concentration 10.0 uM
[35] = molecular target: Sodium-dependent noradrenaline transporter (Homo sapiens) (UniProt P23975); assay: Inhibition of Transporter, Norepinephrine (NET) at 10.0 µM in the Eurofins-Panlabs selectivity screen; conditions: Compound concentration 10.0 uM

## Cn1nccc1[C@]1(CNC(=O)c2ccc(F)c(F)c2-c2ccc(C(F)(F)F)cc2)NC(=O)NC1=O
[1]
  IC50: 5.77 µM
[2]
  inhibition: 2%
[3]
  inhibition: -8%
[4]
  inhibition: 3%
[5]
  inhibition: 0%
[6]
  inhibition: 11%
[7]
  inhibition: -1%
[8]
  inhibition: -4%
[9]
  inhibition: 6%
[10]
  IC50: 5.38 µM
[11]
  inhibition: 11%
[12]
  inhibition: 1%
[13]
  inhibition: -4%
[14]
  IC50: > 100 µM
[15]
  inhibition: -6%
[16]
  inhibition: 0%
[17]
  inhibition: 3%
[18]
  inhibition: 16%
[19]
  inhibition: 2%
[20]
  IC50: 78.5 µM
[21]
  inhibition: 0%
[22]
  inhibition: 3%
[23]
  IC50: 9.92 µM
[24]
  inhibition: -3%
[25]
  IC50: 6.73 µM
[26]
  inhibition: -6%
[27]
  inhibition: -2%
[28]
  inhibition: -7%
[29]
  inhibition: -1%
[30]
  inhibition: -1%
[31]
  inhibition: 3%
[32]
  inhibition: 3%
[33]
  inhibition: 11%
[34]
  inhibition: -1%
[35]
  inhibition: 6%
